Measurements taken from ChEMBL document CHEMBL3045481, “Insecticide-induced resurgence of the whitebacked planthopper Sogatella furcifera (Horvath) (Hemiptera: Delphacidae) on rice varieties with different levels of resistance” (Crop Prot, 2011).
The source made the active and inactive calls. No cut-off for these calls is given here.

Legend:
Sogatella furcifera [1] = test: Insecticidal activity against Sogatella furcifera on insect-resistanct rice plant PR116 assessed as nymphal survival at 0.100% concentration (reference value: 70.28%); format: functional
Oryza sativa [2] = test: Effect on total protein level in Sogatella furcifera-resistanct Oryza sativa (rice) plant PR116 leaf sheath measured per gram of dry weight at 0.100% concentration (reference value: 7.06 mg/g fresh wt); format: ADME, organism-based; conditions: in vivo
Oryza sativa [3] = test: Effect on total sugar level in Sogatella furcifera-sensitive Oryza sativa (rice) plant ARC6248 leaf sheath measured per gram of dry weight at 0.100% concentration (reference value: 25.98 mg/g dry wt); format: ADME, organism-based; conditions: in vivo
Sogatella furcifera [4] = test: Insecticidal activity against Sogatella furcifera on insect-sensitive rice plant ARC6248 assessed as nymphal survival at 0.100% concentration (reference value: 34.17%); format: functional
Oryza sativa [5] = test: Effect on total amino acids level in Sogatella furcifera-sensitive Oryza sativa (rice) plant ARC6248 leaf sheath measured per gram of dry weight at 0.100% concentration (reference value: 2.11 mg/g fresh wt); format: ADME, organism-based; conditions: in vivo
Oryza sativa [6] = test: Effect on total protein level in Sogatella furcifera-resistanct Oryza sativa (rice) plant PR116 leaf blade measured per gram of dry weight at 0.100% concentration (reference value: 21.67 mg/g fresh wt); format: ADME, organism-based; conditions: in vivo
Oryza sativa [7] = test: Effect on total protein level in Sogatella furcifera-sensitive Oryza sativa (rice) plant ARC6248 leaf sheath measured per gram of dry weight at 0.100% concentration (reference value: 6.11 mg/g […]); format: ADME, organism-based; conditions: in vivo
Sogatella furcifera [8] = test: Insecticidal activity against Sogatella furcifera on insect-resistanct rice plant PR116 assessed as growth index at 0.100% concentration (reference value: 6.02%); format: functional
Sogatella furcifera [9] = test: Insecticidal activity against Sogatella furcifera on insect-sensitive rice plant ARC6248 assessed as reproduction at 0.100% concentration; format: functional, organism-based
Oryza sativa [10] = test: Effect on reducing sugar level in Sogatella furcifera-sensitive Oryza sativa (rice) plant ARC6248 leaf sheath measured per gram of dry weight at 0.100% concentration (reference value: 6.41 mg/g dry wt); format: ADME, organism-based; conditions: in vivo
Sogatella furcifera [11] = test: Insecticidal activity against Sogatella furcifera on insect-sensitive rice plant ARC6248 assessed as growth index at 0.100% concentration (reference value: 2.38%); format: functional
Sogatella furcifera [12] = test: Insecticidal activity against Sogatella furcifera on insect-sensitive rice plant ARC6248 assessed as resurgence ratio at 0.100% concentration; format: functional
Oryza sativa [13] = test: Effect on total amino acids level in Sogatella furcifera-resistanct Oryza sativa (rice) plant PR116 leaf sheath measured per gram of dry weight at 0.100% concentration (reference value: 2.58 mg/g […]); format: ADME, organism-based; conditions: in vivo
Oryza sativa [14] = test: Effect on total sugar level in Sogatella furcifera-resistanct Oryza sativa (rice) plant PR116 leaf blade measured per gram of dry weight at 0.100% concentration (reference value: 36.16 mg/g dry wt); format: ADME, organism-based; conditions: in vivo
Oryza sativa [15] = test: Effect on total phenols level in Sogatella furcifera-resistanct Oryza sativa (rice) plant PR116 leaf sheath measured per gram of dry weight at 0.100% concentration (reference value: 5.75 mg/g dry wt); format: ADME, organism-based; conditions: in vivo
Sogatella furcifera [16] = test: Insecticidal activity against Sogatella furcifera on insect-resistanct rice plant PR116 assessed as resurgence ratio at 0.100% concentration; format: functional
Sogatella furcifera [17] = test: Insecticidal activity against Sogatella furcifera on insect-resistanct rice plant PR116 assessed as nymphal duration at 0.100% concentration (reference value: 11.75 days); format: functional
Sogatella furcifera [18] = test: Insecticidal activity against Sogatella furcifera on insect-resistanct rice plant PR116 assessed as hopper population at 0.100% concentration; format: functional, organism-based
Oryza sativa [19] = test: Effect on total sugar level in Sogatella furcifera-resistanct Oryza sativa (rice) plant PR116 leaf sheath measured per gram of dry weight at 0.100% concentration (reference value: 30.27 mg/g dry wt); format: ADME, organism-based; conditions: in vivo
Oryza sativa [20] = test: Effect on total sugar level in Sogatella furcifera-sensitive Oryza sativa (rice) plant ARC6248 leaf blade measured per gram of dry weight at 0.100% concentration (reference value: 34.05 mg/g dry wt); format: ADME, organism-based; conditions: in vivo
Sogatella furcifera [21] = test: Insecticidal activity against Sogatella furcifera on insect-sensitive rice plant ARC6248 assessed as nymphal duration at 0.100% concentration (reference value: 14.48 days); format: functional
Oryza sativa [22] = test: Effect on reducing sugar level in Sogatella furcifera-sensitive Oryza sativa (rice) plant ARC6248 leaf blade measured per gram of dry weight at 0.100% concentration (reference value: 8.37 mg/g dry wt); format: ADME, organism-based; conditions: in vivo
Oryza sativa [23] = test: Effect on total amino acids level in Sogatella furcifera-resistanct Oryza sativa (rice) plant PR116 leaf blade measured per gram of dry weight at 0.100% concentration (reference value: 3.91 mg/g […]); format: ADME, organism-based; conditions: in vivo
Oryza sativa [24] = test: Effect on total phenols level in Sogatella furcifera-resistanct Oryza sativa (rice) plant PR116 leaf blade measured per gram of dry weight at 0.100% concentration (reference value: 8.08 mg/g dry wt); format: ADME, organism-based; conditions: in vivo
Oryza sativa [25] = test: Effect on total phenols level in Sogatella furcifera-sensitive Oryza sativa (rice) plant ARC6248 leaf blade measured per gram of dry weight at 0.100% concentration (reference value: 17.08 mg/g dry wt); format: ADME, organism-based; conditions: in vivo
Oryza sativa [26] = test: Effect on total amino acids level in Sogatella furcifera-sensitive Oryza sativa (rice) plant ARC6248 leaf blade measured per gram of dry weight at 0.100% concentration (reference value: 3.54 mg/g fresh wt); format: ADME, organism-based; conditions: in vivo
Oryza sativa [27] = test: Effect on total protein level in Sogatella furcifera-sensitive Oryza sativa (rice) plant ARC6248 leaf blade measured per gram of dry weight at 0.100% concentration (reference value: 17.67 mg/g […]); format: ADME, organism-based; conditions: in vivo
Oryza sativa [28] = test: Effect on reducing sugar level in Sogatella furcifera-resistanct Oryza sativa (rice) plant PR116 leaf blade measured per gram of dry weight at 0.100% concentration (reference value: 9.35 mg/g dry wt); format: ADME, organism-based; conditions: in vivo
Oryza sativa [29] = test: Effect on reducing sugar level in Sogatella furcifera-resistanct Oryza sativa (rice) plant PR116 leaf sheath measured per gram of dry weight at 0.100% concentration (reference value: 7.50 mg/g dry wt); format: ADME, organism-based; conditions: in vivo
Oryza sativa [30] = test: Effect on total phenols level in Sogatella furcifera-sensitive Oryza sativa (rice) plant ARC6248 leaf sheath measured per gram of dry weight at 0.100% concentration (reference value: 12.75 mg/g dry wt); format: ADME, organism-based; conditions: in vivo

## CCOP(=S)(OCC)Oc1nc(Cl)c(Cl)cc1Cl [CHLORPYRIFOS]
Sogatella furcifera [1]
  Survival: 69.45%
Oryza sativa [2]
  Activity: 7.72 mg
Oryza sativa [3]
  Activity: 25.98 mg
Sogatella furcifera [4]
  Survival: 32.5%
Oryza sativa [5]
  Activity: 1.75 mg
Oryza sativa [6]
  Activity: 19.44 mg
Oryza sativa [7]
  Activity: 5 mg
Sogatella furcifera [8]
  growth inhibition (GI): 5.94%
Sogatella furcifera [9]
  Activity: inactive
Oryza sativa [10]
  Activity: 6.31 mg
Sogatella furcifera [11]
  growth inhibition (GI): 2.25%
Sogatella furcifera [12]
  Ratio: <1
Oryza sativa [13]
  Activity: 2.22 mg
Oryza sativa [14]
  Activity: 39.37 mg
Oryza sativa [15]
  Activity: 6.08 mg
Sogatella furcifera [16]
  Ratio: <1
Sogatella furcifera [17]
  Time: 11.75 days
Sogatella furcifera [18]
  Activity: inactive
Oryza sativa [19]
  Activity: 31.34 mg
Oryza sativa [20]
  Activity: 33.21 mg
Sogatella furcifera [21]
  Time: 14.63 days
Oryza sativa [22]
  Activity: 7.5 mg
Oryza sativa [23]
  Activity: 4 mg
Oryza sativa [24]
  Activity: 7.67 mg
Oryza sativa [25]
  Activity: 18.75 mg
Oryza sativa [26]
  Activity: 3 mg
Oryza sativa [27]
  Activity: 18.22 mg
Oryza sativa [28]
  Activity: 9.13 mg
Oryza sativa [29]
  Activity: 7.72 mg
Oryza sativa [30]
  Activity: 14.08 mg

## O=S1OCC2C(CO1)C1(Cl)C(Cl)=C(Cl)C2(Cl)C1(Cl)Cl (stereo not given) [ENDOSULFAN]
Sogatella furcifera [1]
  Survival: 67.5%
Oryza sativa [2]
  Activity: 7.78 mg
Oryza sativa [3]
  Activity: 30 mg
Sogatella furcifera [4]
  Survival: 32.22%
Oryza sativa [5]
  Activity: 2.46 mg
Oryza sativa [6]
  Activity: 18.33 mg
Oryza sativa [7]
  Activity: 5 mg
Sogatella furcifera [8]
  growth inhibition (GI): 5.66%
Sogatella furcifera [9]
  Activity: inactive
Oryza sativa [10]
  Activity: 5.98 mg
Sogatella furcifera [11]
  growth inhibition (GI): 2.24%
Sogatella furcifera [12]
  Ratio: <1
Oryza sativa [13]
  Activity: 2.4 mg
Oryza sativa [14]
  Activity: 34.02 mg
Oryza sativa [15]
  Activity: 7.83 mg
Sogatella furcifera [16]
  Ratio: <1
Sogatella furcifera [17]
  Time: 12 days
Sogatella furcifera [18]
  Activity: inactive
Oryza sativa [19]
  Activity: 28.12 mg
Oryza sativa [20]
  Activity: 34.55 mg
Sogatella furcifera [21]
  Time: 14.5 days
Oryza sativa [22]
  Activity: 7.94 mg
Oryza sativa [23]
  Activity: 3.38 mg
Oryza sativa [24]
  Activity: 10 mg
Oryza sativa [25]
  Activity: 21.75 mg
Oryza sativa [26]
  Activity: 3.31 mg
Oryza sativa [27]
  Activity: 16.56 mg
Oryza sativa [28]
  Activity: 8.26 mg
Oryza sativa [29]
  Activity: 7.17 mg
Oryza sativa [30]
  Activity: 17.08 mg

## CCOP(=S)(OCC)Oc1cnc2ccccc2n1 [QUINALPHOS]
Sogatella furcifera [1]
  Survival: 72.22%
Oryza sativa [2]
  Activity: 8.5 mg
Oryza sativa [3]
  Activity: 31.87 mg
Sogatella furcifera [4]
  Survival: 37.5%
Oryza sativa [5]
  Activity: 2.38 mg
Oryza sativa [6]
  Activity: 22.78 mg
Oryza sativa [7]
  Activity: 7.22 mg
Sogatella furcifera [8]
  growth inhibition (GI): 6.24%
Sogatella furcifera [9]
  Activity: inactive
Oryza sativa [10]
  Activity: 8.8 mg
Sogatella furcifera [11]
  growth inhibition (GI): 2.61%
Sogatella furcifera [12]
  Ratio: 1.13
Oryza sativa [13]
  Activity: 2.93 mg
Oryza sativa [14]
  Activity: 42.05 mg
Oryza sativa [15]
  Activity: 5.67 mg
Sogatella furcifera [16]
  Ratio: 1.31
Sogatella furcifera [17]
  Time: 11.65 days
Sogatella furcifera [18]
  Activity: inactive
Oryza sativa [19]
  Activity: 30.27 mg
Oryza sativa [20]
  Activity: 38.84 mg
Sogatella furcifera [21]
  Time: 14.46 days
Oryza sativa [22]
  Activity: 10 mg
Oryza sativa [23]
  Activity: 4.89 mg
Oryza sativa [24]
  Activity: 6.75 mg
Oryza sativa [25]
  Activity: 17.08 mg
Oryza sativa [26]
  Activity: 3.61 mg
Oryza sativa [27]
  Activity: 21.56 mg
Oryza sativa [28]
  Activity: 13.04 mg
Oryza sativa [29]
  Activity: 11.31 mg
Oryza sativa [30]
  Activity: 1308 mg
